# Test results published in PMC3149900 (Chemical biology & drug design, 2010).
# Details: PAMPA
smiles,measurement,value
"CC(=O)CC(c1ccccc1)c1c(O)c2ccccc2oc1=O (stereo not shown) [Warfarin, warfarin]",Log (Pe),−4.95
